Measurements reported in patent publication US10308660B2, “Compounds and compositions for inhibiting the activity of SHP2” (Novartis AG, priority 2015, dated 2019).
pIC50: −log10 of the molar value.

Each molecule was assayed against SHP2 (Homo sapiens (Human), UniProt Q06124) (assay: SHP2 allosteric inhibition assay (DiFMUP prompt fluorescence)). Settings: 0.5 nM SHP2 activated with 0.5 μM peptide IRS1_pY1172(dPEG8)pY1222; substrate DiFMUP; 25° C.
Format: biochemical

SHP2, sequence (Q06124 whole entry): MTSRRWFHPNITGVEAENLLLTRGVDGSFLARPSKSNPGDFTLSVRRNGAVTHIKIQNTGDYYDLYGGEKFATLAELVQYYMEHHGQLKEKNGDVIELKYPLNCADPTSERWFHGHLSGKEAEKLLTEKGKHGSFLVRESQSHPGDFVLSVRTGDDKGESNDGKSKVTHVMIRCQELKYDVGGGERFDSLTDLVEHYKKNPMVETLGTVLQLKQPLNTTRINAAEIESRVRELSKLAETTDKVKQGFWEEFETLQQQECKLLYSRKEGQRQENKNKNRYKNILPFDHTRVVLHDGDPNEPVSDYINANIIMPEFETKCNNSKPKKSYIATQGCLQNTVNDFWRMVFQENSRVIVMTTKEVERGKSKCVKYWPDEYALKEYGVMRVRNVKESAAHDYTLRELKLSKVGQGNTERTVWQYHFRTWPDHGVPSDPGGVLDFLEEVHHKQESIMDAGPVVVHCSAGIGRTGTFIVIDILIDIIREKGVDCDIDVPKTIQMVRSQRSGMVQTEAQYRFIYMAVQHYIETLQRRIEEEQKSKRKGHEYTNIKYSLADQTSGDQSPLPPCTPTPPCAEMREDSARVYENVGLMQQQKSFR

Row | Compound | pIC50
1 | C[C@@H]1CC2(CCN(c3nc(N)c(Sc4ccnc(N)c4Cl)c(=O)n3C)CC2)[C@H](N)C1(F)F [Example 34] | 7.24
2 | Cn1c(N2CCC3(CC2)C[C@H](F)C[C@H]3N)nc(N)c(Sc2cccnc2C(F)(F)F)c1=O [Example 35] | 7.62
3 | Cn1c(N2CCC3(CC2)C[C@H](F)C[C@H]3N)nc(N)c(Sc2ccnc(N)c2Cl)c1=O [Example 36] | 7.16
4 | Cn1c(N2CCC3(CC2)CC(F)(F)C[C@H]3N)nc(N)c(Sc2ccnc(N)c2Cl)c1=O [Example 42] | 7.85
5 | Cn1c(N2CCC3(CC2)CC(F)(F)C[C@H]3N)nc(N)c(Sc2cccnc2C(F)(F)F)c1=O [Example 43] | 7.74
6 | Cn1c(N2CCC(C)(CN)CC2)nc(N)c(Sc2ccccc2Br)c1=O [Example 45] | 6.86
7 | Cn1c(N2CCC(C)(CN)CC2)nc(N)c(Sc2ccccc2OC(F)(F)F)c1=O [Example 46] | 7.05
8 | COc1ccccc1Sc1c(N)nc(N2CCC(C)(CN)CC2)n(C)c1=O [Example 47] | 6.69
9 | Cn1c(N2CCC(C)(CN)CC2)nc(N)c(Sc2ccccc2[N+](=O)[O-])c1=O [Example 48] | 6.52
10 | Cn1c(N2CCC(C)(CN)CC2)nc(N)c(Sc2ccccc2C(F)(F)F)c1=O [Example 49] | 7.13
11 | Cn1c(N2CCC(C)(CN)CC2)nc(N)c(Sc2cccc3c2OC(F)(F)O3)c1=O [Example 50] | 6.82
12 | Cn1c(N2CCC(C)(CN)CC2)nc(N)c(Sc2ccccc2C#N)c1=O [Example 51] | 6.41
13 | Cn1c(N2CCC(C)(CN)CC2)nc(N)c(Sc2ccccc2O)c1=O [Example 52] | 6.14
14 | Cn1c(N2CCC(C)(CN)CC2)nc(N)c(Sc2ccc(N)cc2Cl)c1=O [Example 53] | 6.22
15 | Cc1ccccc1Sc1c(N)nc(N2CCC(C)(CN)CC2)n(C)c1=O [Example 54] | 6.70
16 | Cn1c(N2CCC(C)(CN)CC2)nc(N)c(Sc2cccc3ccccc23)c1=O [Example 55] | 7.35
17 | Cn1c(N2CCC(C)(CN)CC2)nc(N)c(Sc2ccc(Cl)cc2Cl)c1=O [Example 56] | 6.77
18 | Cn1c(N2CCC(C)(CN)CC2)nc(N)c(Sc2cccc3cccnc23)c1=O [Example 57] | 6.55
19 | C[C@@H]1OCC2(CCN(c3nc(N)c(Sc4ccnc(C(F)(F)F)c4Cl)c(=O)n3C)CC2)[C@@H]1N [Example 59] | 7.37
20 | C[C@H]1C[C@@H](N)C2(CCN(c3nc(N)c(Sc4cccc(N)c4Cl)c(=O)n3C)CC2)C1 [Example 60] | 7.80
21 | C[C@@H]1OCC2(CCN(c3nc(N)c(Sc4ccncc4C(F)(F)F)c(=O)n3C)CC2)[C@@H]1N [Example 61] | 7.03
22 | C[C@H]1C[C@@H](N)C2(CCN(c3nc(N)c(Sc4ccnc(N5CCCC5)c4Cl)c(=O)n3C)CC2)C1 [Example 62] | 7.60
23 | Cn1c(N2CCC3(CC2)COC[C@H]3N)nc(N)c(Sc2cccnc2C(F)(F)F)c1=O [Example 63] | 7.47
24 | C[C@H]1C[C@@H](N)C2(CCN(c3nc(N)c(Sc4cccnc4Cl)c(=O)n3C)CC2)C1 [Example 66] | 7.70

Row | Compound | pIC50
25 | C[C@H]1C[C@@H](N)C2(CCN(c3nc(N)c(Sc4cc(N)cnc4Cl)c(=O)n3C)CC2)C1 [Example 68] | 8.00
26 | C[C@H]1C[C@@H](N)C2(CCN(c3nc(N)c(Sc4cc(N)ccc4Cl)c(=O)n3C)CC2)C1 [Example 69] | 8.00
27 | C[C@H]1C[C@@H](N)C2(CCN(c3nc(N)c(Sc4cc(N)nc(Cl)c4Cl)c(=O)n3C)CC2)C1 [Example 70] | 7.96
28 | Cn1c(N2CCC3(CC2)COC[C@H]3N)nc(N)c(Sc2cccc(Cl)c2Cl)c1=O [Example 72] | 7.48
29 | C[C@H]1C[C@@H](N)C2(CCN(c3nc(N)c(Sc4ccnc(Cl)c4C(F)(F)F)c(=O)n3C)CC2)C1 [Example 73] | 7.15
30 | C[C@H]1C[C@@H](N)C2(CCN(c3nc(N)c(Sc4ccncc4C(F)(F)F)c(=O)n3C)CC2)C1 [Example 75] | 7.74
31 | C[C@H]1C[C@@H](N)C2(CCN(c3nc(N)c(Sc4ccncc4Cl)c(=O)n3C)CC2)C1 [Example 76] | 7.57
32 | COc1nccc(Sc2c(N)nc(N3CCC4(CC3)C[C@@H](C)C[C@H]4N)n(C)c2=O)c1Cl [Example 77] | 7.41
33 | C[C@@H]1OCC2(CCN(c3nc(N)c(Sc4cccc5c4OCO5)c(=O)n3C)CC2)[C@@H]1N [Example 78] | 7.92
34 | COc1ccc(Sc2c(N)nc(N3CCC4(CC3)CO[C@@H](C)[C@H]4N)n(C)c2=O)cc1F [Example 79] | 6.43
35 | Cc1ncccc1Sc1c(N)nc(N2CCC3(CC2)CO[C@@H](C)[C@H]3N)n(C)c1=O [Example 80] | 7.17
36 | C[C@@H]1OCC2(CCN(c3nc(N)c(Sc4ccc(F)cc4Cl)c(=O)n3C)CC2)[C@@H]1N [Example 81] | 7.82
37 | Cn1c(N2CCC3(CC2)CC(F)(F)C[C@H]3N)nc(N)c(Sc2ccc(F)cc2Cl)c1=O [Example 82] | 7.60
38 | Cn1c(N2CCC3(CC2)C[C@H](C(F)(F)F)C[C@H]3N)nc(N)c(Sc2cccnc2C(F)(F)F)c1=O [Example 83] | 7.25
39 | Cn1c(N2CCC3(CC2)C[C@@H](C(F)(F)F)C[C@H]3N)nc(N)c(Sc2cccnc2C(F)(F)F)c1=O [Example 84] | 7.14
40 | Cn1c(N2CCC3(CC2)CC(F)(F)C[C@H]3N)nc(N)c(Sc2ccccc2Cl)c1=O [Example 85] | 7.11
41 | CC[C@@H]1OCC2(CCN(c3nc(N)c(Sc4ccnc(C)c4Cl)c(=O)n3C)CC2)[C@@H]1N [Example 86] | 7.66
42 | CC[C@@H]1OCC2(CCN(c3nc(N)c(Sc4cccnc4C(F)(F)F)c(=O)n3C)CC2)[C@@H]1N [Example 87] | 7.68
43 | C[C@@H]1OCC2(CCN(c3cc(N)c(Sc4cccnc4C(F)(F)F)c(=O)[nH]3)CC2)[C@@H]1N [Example 88, 4-amino-6-((3S,4S)-4-amino-3-methyl-2-oxa-8-azaspiro[4.5]decan-8-yl)-3-((2-(trifluoromethyl)pyridin-3-yl)thio)pyridin-2(1H)-one] | 7.38
44 | CC1(CN)CCN(c2nc(N)c(Sc3cccnc3C(F)(F)F)c(=O)[nH]2)CC1 [Example 90, 6-amino-2-(4-(aminomethyl)-4-methylpiperidin-1-yl)-5-((2-(trifluoromethyl)pyridin-3-yl)thio)pyrimidin-4(3H)-one] | 7.18
45 | N[C@@H]1CCCC12CCN(c1ncc(Sc3cccnc3C(F)(F)F)c(=O)[nH]1)CC2 [Example 92] | 7.04
46 | CC1(CN)CCN(c2ncc(Sc3cccc(Cl)c3Cl)c(=O)[nH]2)CC1 [Example 93] | 7.19
47 | CC1(CN)CCN(c2ncc(Sc3ccccc3Cl)c(=O)[nH]2)CC1 [Example 94] | 6.75
48 | CCOc1nccc(Sc2cnc(N3CCC4(CC3)CO[C@@H](C)[C@H]4N)[nH]c2=O)c1Cl [Example 95] | 7.64

Row | Compound | pIC50
49 | C[C@@H]1OCC2(CCN(c3ncc(Sc4cccc(Cl)c4Cl)c(=O)[nH]3)CC2)[C@@H]1N [Example 97] | 8.05
50 | Cn1c(N2CCC(C)(CN)CC2)ncc(Sc2cccc(Cl)c2Cl)c1=O [Example 98, 2-(4-(aminomethyl)-4-methylpiperidin-1-yl)-5-((2,3-dichlorophenyl)thio)-3-methylpyrimidin-4(3H)-one] | 7.17
51 | Cn1c(N2CCC(C)(CN)CC2)ncc(Sc2ccccc2Cl)c1=O [Example 99] | 6.43
52 | Cn1c(N2CCC(C)(CN)CC2)ncc(Sc2cccnc2C(F)(F)F)c1=O [Example 100] | 6.20
53 | Cn1c(N2CCC3(CC2)COC[C@H]3N)ncc(Sc2cccc(Cl)c2Cl)c1=O [Example 101] | 7.43
54 | CCOc1nccc(Sc2cnc(N3CCC4(CC3)CO[C@@H](C)[C@H]4N)n(C)c2=O)c1Cl [Example 102] | 8.00
55 | C[C@@H]1OCC2(CCN(c3ncc(Sc4cccc(Cl)c4Cl)c(=O)n3C)CC2)[C@@H]1N [Example 103] | 7.82
56 | Cn1c(N2CCC3(CC[C@@H]3N)CC2)ncc(Sc2cccc(Cl)c2Cl)c1=O [Example 104] | 6.96
57 | COc1nccc(Sc2cnc(N3CCC4(CC3)CO[C@@H](C)[C@H]4N)n(C)c2=O)c1Cl [Example 105] | 8.10
58 | COc1cccc(Sc2cnc(N3CCC4(CC3)CO[C@@H](C)[C@H]4N)n(C)c2=O)c1Cl [Example 106] | 7.52
59 | C[C@@H]1OCC2(CCN(c3ncc(Sc4ccnc(NC5CC5)c4Cl)c(=O)n3C)CC2)[C@@H]1N [Example 107] | 6.84
60 | Cn1c(N2CCC(C)(CN)CC2)ncc(Sc2ccccc2C(F)(F)F)c1=O [Example 108] | 6.30
61 | Cn1c(N2CCC3(CCC[C@H]3N)CC2)ncc(Sc2cccc(Cl)c2Cl)c1=O [Example 109] | 7.59
62 | C[C@H]1C[C@@H](N)C2(CCN(c3ncc(Sc4cc(N)ncc4Cl)c(=O)n3C)CC2)C1 [Example 110] | 7.80
63 | C[C@@H]1OCC2(CCN(c3ncc(Sc4cc(N)nc(Cl)c4Cl)c(=O)n3C)CC2)[C@@H]1N [Example 112] | 7.72
64 | C[C@@H]1OCC2(CCN(c3ncc(Sc4ccnc(N)c4Cl)c(=O)n3C)CC2)[C@@H]1N [Example 113] | 7.46
65 | C[C@H]1C[C@@H](N)C2(CCN(c3ncc(Sc4cccnc4C(F)(F)F)c(=O)n3C)CC2)C1 [Example 114] | 7.30
66 | Cn1c(N2CCC(C)(CN)CC2)ncc(Sc2ccnc(Cl)c2Cl)c1=O [Example 115] | 7.08
67 | Cn1c(N2CCC(C)(CN)CC2)ccc(Sc2cccc(Cl)c2Cl)c1=O [Example 116, 6-(4-(aminomethyl)-4-methylpiperidin-1-yl)-3-((2,3-dichlorophenyl)thio)-1-methylpyridin-2(1H)-one] | 5.79
68 | CC1(CN)CCN(c2ccc(Sc3cccc(Cl)c3Cl)c(=O)[nH]2)CC1 [Example 118, 6-(4-(aminomethyl)-4-methylpiperidin-1-yl)-3-((2,3-dichlorophenyl)thio)pyridin-2(1H)-one] | 6.97
69 | COc1nccc(Sc2ccc(N3CCC4(CC3)CO[C@@H](C)[C@H]4N)[nH]c2=O)c1Cl [Example 119] | 7.08
70 | C[C@@H]1OCC2(CCN(c3ccc(Sc4cccc(Cl)c4Cl)c(=O)[nH]3)CC2)[C@@H]1N [Example 120] | 7.82
